Measured values taken from patent US10278942B2 (PELOTON THERAPEUTICS, INC., priority 2015, dated 2019).
Read-outs that look alike come from different tables or passages of the source.

How the values were obtained:
[1] = biological target: T1, HIF-2α HIS TAG-PASB Domain (Homo sapiens, UniProt Q99814); assay: HIF-2α Scintillation Proximity Assay (SPA); type: binding
T1 construct: 100 nM HIF-2α HIS TAG-PASB Domain
How it was run: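 IC50 values rest on percent inhibition, where the sample signal is scaled between high and low controls. Wells contain about 100 μL: compound dispensed as 2 μL of DMSO solution, 88 μL protein-probe mix and 10 μL of beads.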

786-O-Hif-Luc cells = assay: Luciferase Assay (HIF responsive elements reporter); details: read-out: Mean Luciferase EC50 (nM), 786-O-Hif-Luc cells
Procedure: A pool of infected cells were then selected against 2 μg/mL of puromycin (P8833, Sigma) for 10 days followed by limited dilution to select single clones. […] Each concentration was tested in triplicate. After about 24 hours, luciferase activity was determined using ONE-Glo Luciferase Assay Reagent (E6110, Promega) following the manufacturer's recommended procedure. EC50 were calculated using Dotmatics software.

[2] = read-out: Scintillation Proximity Assay IC50

T1 sequence (Q99814 240-350 limits assumed): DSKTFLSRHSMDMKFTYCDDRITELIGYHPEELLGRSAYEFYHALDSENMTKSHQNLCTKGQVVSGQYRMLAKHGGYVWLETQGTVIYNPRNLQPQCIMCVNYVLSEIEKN

| SMILES | IC50 [1, 2] [nM] | EC50 (786-O-Hif-Luc cells) [nM] | IC50 ([1]; Scintillation Proximity Assay IC50 (nM)) [nM] |
| --- | --- | --- | --- |
| Cc1c(S(C)(=O)=O)ccc(Oc2cc(F)cc(Cl)c2)c1C(F)F [Compound 53] | 250 to 1000 | > 1000 |  |
| O=S(=O)(c1ccc(Oc2cc(F)cc(Cl)c2)c(Br)c1)C(F)F [Compound 131] |  | > 1000 | 250 to 1000 |
| Cc1c(S(=O)(=O)C(F)F)ccc(Oc2cc(F)cc(C#N)c2)c1C#N [Compound 33] | 50 to 249 | > 1000 |  |
| N#Cc1cc(F)cc(Oc2ccc(S(=O)(=O)C(F)(F)F)c(C#N)c2Br)c1 [Compound 100] | 50 to 249 | > 1000 |  |
| O=S(=O)(c1ccc(Oc2cc(F)cc(F)c2)c2c1C=CC2)C(F)F [Compound 21] | 50 to 249 | > 1000 |  |
| O=S(=O)(c1ccc(CCO)c2c1[C@H](O)C(F)(F)C2)C(F)(F)F [Compound 496, (S)-2,2-difluoro-4-(2-hydroxyethyl)-7-((trifluoromethyl)sulfonyl)-2,3-dihydro-1H-inden-1-ol] | 250 to 1000 | > 1000 |  |
| N#Cc1cc(F)cc(Oc2ccc(S(=O)(=O)CCO)c3c2CC(F)(F)C3O)c1 (stereo not shown) [Compound 250] | > 1000 | > 1000 |  |
| N#Cc1cc(F)cc(Oc2ccc3c(c2C(F)F)C(O)CS3(=O)=O)c1 (stereo not shown) [Compound 374] | 250 to 1000 | > 1000 |  |
| CS(=O)(=O)c1ccc(Sc2cccc(C#N)c2)c2c1[C@H](O)C(F)(F)[C@@H]2F [Compound 492, 3-(((1S,3R)-2,2,3-trifluoro-1-hydroxy-(methylsulfonyl)-2,3-dihydro-1H-inden-4-yl)thio)benzonitrile] | > 1000 | > 1000 |  |
| O[C@H]1c2c(C(F)(F)F)ccc(OCCCF)c2[C@H](F)C1(F)F [Compound 701] | 50 to 249 | > 1000 |  |
| O=S(=O)(c1ccc(Cc2ccccc2)c2c1C(O)C(F)(F)C2)C(F)(F)F (stereo not shown) [Compound 511] | 250 to 1000 | > 1000 |  |
| O=S(=O)(c1ccc(C2CC2)c2c1C(O)C(F)(F)C2)C(F)(F)F (stereo not shown) [Compound 513] | 250 to 1000 | > 1000 |  |
| Cc1cc(S(=O)(=O)C(F)F)ccc1Oc1cc(F)cc(Cl)c1 [Compound 135] | 250 to 1000 | > 1000 |  |
| O=S1(=O)CCC(Oc2ccc(S(=O)(=O)C(F)(F)F)c3c2CC(F)(F)[C@H]3O)CC1 [Compound 721] | > 1000 | > 1000 |  |
| CS(=O)(=O)N[C@H]1C[C@@H](Oc2ccc(S(=O)(=O)C(F)(F)F)c3c2CC(F)(F)[C@H]3O)C1 [Compound 726] | > 1000 | > 1000 |  |
| Cc1c(Oc2cc(F)cc(Cl)c2)ccc(S(=O)(=O)C(F)(F)F)c1Br [Compound 140] | < 50 | > 1000 |  |
| CC1(C)CC(c2ccc(S(=O)(=O)C(F)(F)F)c3c2CC(F)(F)[C@H]3O)=CC(O)C1 (stereo partly shown) [Compound 551] | 50 to 249 | > 1000 |  |
| O=S(=O)(c1ccc(OC2CCC(O)CC2)c2c1C(O)C(F)(F)C2)C(F)(F)F (stereo not shown) [Compound 618] | > 1000 | > 1000 |  |
| CCCOc1ccc(I)c2c1CC(F)(F)C2O (stereo not shown) [Compound 682] | 50 to 249 | 250 to 1000 |  |
| O=S(=O)(c1ccc(OCc2ccccn2)c2c1C(O)C(F)(F)C2)C(F)(F)F (stereo not shown) [Compound 665] | > 1000 | > 1000 |  |
| Cc1cc(S(=O)(=O)C(F)F)ccc1Oc1cc(F)cc(C#N)c1 [Compound 136] | 50 to 249 | > 1000 |  |
| N#CN=S1(=O)c2ccc(Oc3cc(F)cc(F)c3)c(C(F)F)c2C(O)C1(F)F (stereo not shown) [Compound 397] | < 50 | > 1000 |  |

The next lines start with the values.

| IC50 [1, 2] [nM] | EC50 (786-O-Hif-Luc cells) [nM] | IC50 ([1]; Scintillation Proximity Assay IC50 (nM)) [nM] | SMILES |
| --- | --- | --- | --- |
| 50 to 249 | 250 to 1000 |  | N#Cc1cc(Oc2ccc3c(c2C(F)F)[C@@H](O)C(F)(F)S3(=O)=O)ccc1F [Compound 437] |
| 250 to 1000 | 250 to 1000 |  | CC(C)(O)COc1ccc(S(=O)(=O)C(F)(F)F)c2c1CC(F)(F)[C@H]2O [Compound 750] |
| 50 to 249 | 50 to 249 |  | O[C@H]1c2c(C(F)(F)F)ccc(OCC(F)F)c2C[C@@H]1F [Compound 697] |
| < 50 | 250 to 1000 |  | O=S(=O)(c1ccc(Oc2ccc(F)c(Br)c2)c2c1[C@H](O)C(F)(F)C2)C(F)F [Compound 194] |
| 250 to 1000 | 250 to 1000 |  | CCOc1ccc(S(=O)(=O)C(F)F)c2c1CC(F)(F)[C@H]2O [Compound 678] |
| < 50 | < 50 |  | N#CC1(COc2ccc(S(=O)(=O)C(F)(F)F)c3c2C[C@@H](F)[C@H]3O)CC1 [Compound 661] |
| 50 to 249 | 250 to 1000 |  | N#Cc1cccc(-c2ccc(S(=O)(=O)C(F)(F)F)c3c2CC(F)(F)[C@H]3O)c1 [Compound 569] |
| 250 to 1000 | 250 to 1000 |  | CC1(COc2ccc(S(=O)(=O)C(F)(F)F)c3c2CC(F)(F)C3O)COC1 (stereo not shown) [Compound 622] |
| < 50 | 250 to 1000 |  | CS(=O)(=O)c1ccc(OC2CCC2)c2c1[C@H](O)C(F)(F)[C@@H]2F [Compound 753] |
| 250 to 1000 | 250 to 1000 |  | O=S1(=O)c2ccc(OCc3ccccc3)c(C(F)F)c2C(O)C1(F)F (stereo not shown) [Compound 411] |
